PubChem BioAssay (NCI)
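Dose response: 5 concentrations. Exposure: 48 h. Format: 96-well plates. Endpoint: linear interpolation; highest concentration if not reached. The concentration for full growth arrest is given as TGI.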

What was measured:
Assay in all cases: NCI tumour cell line growth inhibition, 48 h
786-0 renal = tested on: 786-0 renal
A498 renal = tested on: A498 renal
A549 NSCLC = tested on: A549 NSCLC
ACHN renal = tested on: ACHN renal
CAKI-1 renal = tested on: CAKI-1 renal
CCRF-CEM leukemia = tested on: CCRF-CEM leukemia
COLO 205 colon = tested on: COLO 205 colon
DLD-1 colon = tested on: DLD-1 colon
DMS 114 small cell lung = tested on: DMS 114 small cell lung
DMS 273 small cell lung = tested on: DMS 273 small cell lung
EKVX NSCLC = tested on: EKVX NSCLC
HCC-2998 colon = tested on: HCC-2998 colon
HCT-116 colon = tested on: HCT-116 colon
HCT-15 colon = tested on: HCT-15 colon
HL-60(TB) leukemia = tested on: HL-60(TB) leukemia
HOP-18 NSCLC = tested on: HOP-18 NSCLC
HOP-62 NSCLC = tested on: HOP-62 NSCLC
HOP-92 NSCLC = tested on: HOP-92 NSCLC
HT29 colon = tested on: HT29 colon
IGROV1 ovarian = tested on: IGROV1 ovarian
K-562 leukemia = tested on: K-562 leukemia
KM12 colon = tested on: KM12 colon
KM20L2 colon = tested on: KM20L2 colon
LOX IMVI melanoma = tested on: LOX IMVI melanoma
LXFL 529 NSCLC = tested on: LXFL 529 NSCLC
M14 melanoma = tested on: M14 melanoma
M19-MEL melanoma = tested on: M19-MEL melanoma
MALME-3M melanoma = tested on: MALME-3M melanoma
MOLT-4 leukemia = tested on: MOLT-4 leukemia
NCI-H226 lung = tested on: NCI-H226 lung
NCI-H23 lung = tested on: NCI-H23 lung
NCI-H460 lung = tested on: NCI-H460 lung
NCI-H522 lung = tested on: NCI-H522 lung
OVCAR-3 ovarian = tested on: OVCAR-3 ovarian
OVCAR-4 ovarian = tested on: OVCAR-4 ovarian
OVCAR-5 ovarian = tested on: OVCAR-5 ovarian
OVCAR-8 ovarian = tested on: OVCAR-8 ovarian
RPMI-8226 leukemia = tested on: RPMI-8226 leukemia
RXF 393 renal = tested on: RXF 393 renal
RXF-631 renal = tested on: RXF-631 renal
SF-268 CNS = tested on: SF-268 CNS
SF-295 CNS = tested on: SF-295 CNS
SF-539 CNS = tested on: SF-539 CNS
SK-MEL-2 melanoma = tested on: SK-MEL-2 melanoma
SK-MEL-28 melanoma = tested on: SK-MEL-28 melanoma
SK-MEL-5 melanoma = tested on: SK-MEL-5 melanoma
SK-OV-3 ovarian = tested on: SK-OV-3 ovarian
SN12C renal = tested on: SN12C renal
SNB-19 CNS = tested on: SNB-19 CNS
SNB-75 CNS = tested on: SNB-75 CNS
SNB-78 CNS = tested on: SNB-78 CNS
SW-620 colon = tested on: SW-620 colon
TK-10 renal = tested on: TK-10 renal
U251 CNS = tested on: U251 CNS
UACC-257 melanoma = tested on: UACC-257 melanoma
UACC-62 melanoma = tested on: UACC-62 melanoma
UO-31 renal = tested on: UO-31 renal
XF 498 CNS = tested on: XF 498 CNS
SR leukemia = tested on: SR leukemia
MCF7 breast = tested on: MCF7 breast
NCI/ADR-RES ovarian = tested on: NCI/ADR-RES ovarian
P388 leukemia = tested on: P388 leukemia
P388/ADR leukemia = tested on: P388/ADR leukemia
SN12K1 renal = tested on: SN12K1 renal

Measured: TGI

O=C1c2c(n(Cc3ccccc3)c(=O)n2Cc2ccccc2)C(=O)N1Cc1ccccc1
98.5 µM: XF 498 CNS
not listed: SR leukemia | MCF7 breast | NCI/ADR-RES ovarian | P388 leukemia | P388/ADR leukemia | SN12K1 renal
> 100 µM: all other assays above

CCSC1=C(C)N(C=NC(C)(C)C)CC1
73.8 µM: SW-620 colon
not listed: RPMI-8226 leukemia | MCF7 breast | NCI/ADR-RES ovarian | P388 leukemia | P388/ADR leukemia | SN12K1 renal
> 100 µM: all other assays above

C=C1C(=O)OCC2C(C(=O)O)=CC3C(C)C(C)=CC123 (stereo not drawn)
26 µM: HL-60(TB) leukemia
29.2 µM: NCI-H460 lung
12.7 µM: P388 leukemia
27.9 µM: LOX IMVI melanoma
8.18 µM: NCI-H522 lung
51.1 µM: KM20L2 colon
23.6 µM: SN12C renal
52.1 µM: NCI-H226 lung
40.9 µM: SW-620 colon
49.1 µM: SF-295 CNS
54.6 µM: M19-MEL melanoma
35.5 µM: HCT-116 colon
32.9 µM: COLO 205 colon
31.2 µM: KM12 colon
34.2 µM: HOP-18 NSCLC
44.4 µM: HT29 colon
20.6 µM: OVCAR-4 ovarian
117 µM: SNB-78 CNS
66.3 µM: OVCAR-5 ovarian
40.2 µM: SNB-19 CNS
7.64 µM: SK-MEL-28 melanoma
27.3 µM: NCI/ADR-RES ovarian | SK-MEL-5 melanoma
23.9 µM: MCF7 breast | SF-539 CNS
59.6 µM: DMS 273 small cell lung
18.2 µM: A498 renal
29 µM: HCC-2998 colon
24.8 µM: XF 498 CNS
42 µM: CCRF-CEM leukemia
72.4 µM: K-562 leukemia
36.1 µM: IGROV1 ovarian
79.5 µM: SK-OV-3 ovarian
43.8 µM: HCT-15 colon
62.6 µM: CAKI-1 renal | EKVX NSCLC
11.8 µM: UACC-62 melanoma
38.6 µM: U251 CNS
73.5 µM: OVCAR-8 ovarian
17.6 µM: MALME-3M melanoma
15.1 µM: SK-MEL-2 melanoma
32.8 µM: SF-268 CNS
31.3 µM: OVCAR-3 ovarian
39.5 µM: UO-31 renal
45.7 µM: DLD-1 colon
25.7 µM: NCI-H23 lung
21.9 µM: P388/ADR leukemia
31.4 µM: HOP-62 NSCLC
29.6 µM: MOLT-4 leukemia | SN12K1 renal
44.1 µM: SNB-75 CNS
46 µM: UACC-257 melanoma
17.7 µM: RXF 393 renal
77.1 µM: A549 NSCLC
26.8 µM: RPMI-8226 leukemia
33.8 µM: DMS 114 small cell lung
25.5 µM: HOP-92 NSCLC
